Reference: US11629136B1, “Substituted pyridine derivatives as SARM1 inhibitors” (Nura Bio, Inc., priority 2021, dated 2023)

Target: human SARM1(50-724) (Homo sapiens (Human), UniProt Q6SZW1)
Test: SARM1 NAD hydrolase biological assay (HPLC readout of NAD and NAM peak areas)
Type: biochemical
Conditions: not given
Method: The reaction was incubated at room temperature for 60 minutes and quenched with 20 μL of 0.4% formic acid. […] Total run time for each sample was 4 minutes. The run was isocratic with 1.5% methanol in 40 mM ammonium acetate pH 6.0. Samples were run at a flow rate of 0.8 ml/min at 55° C. Peak areas of NAD and NAM were determined using OpenLAB CDS (Chem Station edition) software. For dose-response, the compound was diluted serially 1:3 in DMSO and added to the reaction starting at a final compound concentration of 100 μM in 1% DMSO.

Sequence of human SARM1(50-724) (Q6SZW1 50-724): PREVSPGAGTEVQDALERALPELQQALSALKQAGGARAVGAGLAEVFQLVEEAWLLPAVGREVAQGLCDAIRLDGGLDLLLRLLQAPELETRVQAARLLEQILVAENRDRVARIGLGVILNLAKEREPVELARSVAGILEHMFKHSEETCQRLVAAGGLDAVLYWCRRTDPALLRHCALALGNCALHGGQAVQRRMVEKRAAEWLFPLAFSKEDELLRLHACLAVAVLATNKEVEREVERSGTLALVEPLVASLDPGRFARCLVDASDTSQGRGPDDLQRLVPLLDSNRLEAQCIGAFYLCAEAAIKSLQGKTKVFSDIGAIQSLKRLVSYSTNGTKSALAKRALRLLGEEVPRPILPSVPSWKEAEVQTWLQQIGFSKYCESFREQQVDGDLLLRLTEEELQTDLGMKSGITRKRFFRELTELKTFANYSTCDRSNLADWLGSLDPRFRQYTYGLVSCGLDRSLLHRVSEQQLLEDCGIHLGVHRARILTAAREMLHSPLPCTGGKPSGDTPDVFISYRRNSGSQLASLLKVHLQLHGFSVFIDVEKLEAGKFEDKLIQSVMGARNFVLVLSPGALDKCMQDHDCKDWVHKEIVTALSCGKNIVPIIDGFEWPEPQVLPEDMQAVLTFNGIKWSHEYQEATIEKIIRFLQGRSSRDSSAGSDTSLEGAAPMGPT

How did the IC50 turn out when N#CCCc1nc(Cc2ccncc2)c[nH]1 [Example 4, 3-(4-(Pyridin-4-ylmethyl)-1H-imidazol-2-yl)propanenitrile] was run?
Its IC50 is 1000 to 10000 nM.

Same assay, conditions: 40 nM human SARM1(50-724), 0.3 mM NMN, 20 μM NAD, 60 minutes at room temperature; class symbols; read-out: Average IC50

CO[C@@H](c1ncc(Cc2ccncc2)[nH]1)C(F)(F)F (single isomer, unassigned) [Example 33] was tested. Which IC50 did it give?
The IC50 was 1000 to 10000 nM.

With CNC(c1ncc(Cc2ccncc2)[nH]1)C(F)(F)F (single isomer, unassigned) [Example 16] as the molecule, how does the IC50 read?
Its IC50 is 1000 to 10000 nM.

Which IC50 does the source give for O[C@@H](c1nc(Cc2ccncc2F)c[nH]1)C(F)(F)F (single isomer, unassigned) [Example 38] here?
Its IC50 is < 1000 nM.

C[C@H](c1ccncc1)c1c[nH]c([C@H](O)C(F)(F)F)n1 (single isomer, unassigned) [Example 24b] was tested. Which IC50 did it give?
The IC50 was < 1000 nM.

For c1cc(Cc2c[nH]c(Cc3cncs3)n2)ccn1 [Example 6, 5-((4-(Pyridin-4-ylmethyl)-1H-imidazol-2-yl)methyl)thiazole], which IC50 is on record?
The IC50 was < 1000 nM.

For O[C@@H](c1ncc(Cc2ccncc2)[nH]1)c1nccs1 (single isomer, unassigned) [Example 31a], which IC50 is on record?
Its IC50 is 1000 to 10000 nM.

With ON=C(c1ncc(Cc2ccncc2)[nH]1)C(F)(F)F (mixture of isomers) [Example 13, (E/Z)-2,2,2-Trifluoro-1-(5-(pyridin-4-ylmethyl)-1H-imidazol-2-yl)ethan-1-one oxime] as the molecule, how does the IC50 read?
Its IC50 is 1000 to 10000 nM.

How did the IC50 turn out when C[C@@H](c1ccncc1)c1c[nH]c([C@H](O)C(F)(F)F)n1 (single isomer, unassigned) [Example 24] was run?
Its IC50 is < 1000 nM.

With COC(c1ncc(Cc2ccncc2)[nH]1)C(F)(F)F (single isomer, unassigned) [Example 33a] as the molecule, how does the IC50 read?
Its IC50 is 1000 to 10000 nM.

C[C@@](O)(c1ncc(Cc2ccncc2)[nH]1)C(F)(F)F (single isomer, unassigned) [Example 32] was tested. Which IC50 did it give?
Its IC50 is < 1000 nM.

N#CCc1nc(Cc2ccncc2)c[nH]1 [Example 3, 2-(4-(Pyridin-4-ylmethyl)-1H-imidazol-2-yl)acetonitrile] was tested. Which IC50 did it give?
Its IC50 is < 1000 nM.

Which IC50 does the source give for N[C@@H](c1nc(Cc2ccncc2)cs1)C(F)(F)F [Example 19a] here?
Its IC50 is 1000 to 10000 nM.

Which IC50 does the source give for C[C@H](c1ccncc1)c1c[nH]c(CC(F)(F)F)n1 (single isomer, unassigned) [Example 5b] here?
The IC50 was 1000 to 10000 nM.

FC(F)(F)CCc1nc(Cc2ccncc2)c[nH]1 [Example 2, 4-((2-(3,3,3-trifluoropropyl)-1H-imidazol-4-yl)methyl)pyridine] was tested. Which IC50 did it give?
Its IC50 is 1000 to 10000 nM.

OC(c1ncc(Cc2ccncc2)[nH]1)(c1cncs1)C(F)(F)F (single isomer, unassigned) [Example 26] was tested. Which IC50 did it give?
Its IC50 is 10000 to 100000 nM.

With N[C@H](c1nc(Cc2ccncc2)c[nH]1)C(F)(F)F (single isomer, unassigned) [Example 15a] as the molecule, how does the IC50 read?
Its IC50 is < 1000 nM.

FC(F)(F)Cc1nc(Cc2ccncc2Cl)c[nH]1 [Example 27, 3-Chloro-4-((2-(2,2,2-trifluoroethyl)-1H-imidazol-4-yl)methyl)pyridine] was tested. Which IC50 did it give?
Its IC50 is < 1000 nM.

With CN(C)C(c1ncc(Cc2ccncc2)[nH]1)C(F)(F)F (single isomer, unassigned) [Example 17] as the molecule, how does the IC50 read?
Its IC50 is 10000 to 100000 nM.

With FC(F)(F)Cc1nc(Cc2ccncc2)c[nH]1 [Example 1, 4-((2-(2,2,2-Trifluoroethyl)-1H-imidazol-4-yl)methyl)pyridine] as the molecule, how does the IC50 read?
Its IC50 is < 1000 nM.

O[C@H](c1ncc(Cc2ccncc2)[nH]1)C(F)(F)F (single isomer, unassigned) [Example 7a] was tested. Which IC50 did it give?
The IC50 was < 1000 nM.

Same assay, conditions: 40 nM human SARM1(50-724), 0.3 mM NMN, 20 μM NAD, 60 minutes at room temperature; given as numeric bound; read-out: Average IC50

How did the IC50 turn out when ON=C(c1nc(Cc2ccncc2)cs1)C(F)(F)F (mixture of isomers) [Example 18, (E/Z)-2,2,2-Trifluoro-1-(4-(pyridin-4-ylmethyl)thiazol-2-yl)ethan-1-one oxime] was run?
Its IC50 is > 100000 nM.

Which IC50 does the source give for Fc1cc(Cc2c[nH]c(CC(F)(F)F)n2)ccn1 [Example 29, 2-Fluoro-4-((2-(2,2,2-trifluoroethyl)-3H-imidazol-4-yl)methyl)pyridine] here?
Its IC50 is > 50000 nM.

With FC(F)(F)Cc1nc(Cc2ccnc(Cl)c2)c[nH]1 [Example 28, 2-Chloro-4-((2-(2,2,2-trifluoroethyl)-1H-imidazol-4-yl)methyl)pyridine] as the molecule, how does the IC50 read?
The IC50 was > 50000 nM.

How did the IC50 turn out when O[C@H](c1ncc(Cc2ccnc(F)c2)[nH]1)C(F)(F)F (single isomer, unassigned) [Example 34] was run?
Its IC50 is > 100000 nM.
